Results from ChEMBL document CHEMBL3882729, “Receptor-type kinase modulators and methods of use” (2009).

What was measured:
Ephrin type-A receptor 2 = Ephrin type-A receptor 2 (Homo sapiens, UniProt P29317); assay: Inhibition of recombinant human N-terminal His6-tagged EphA2 (N598 to R890 residues) expressed in baculovirus using poly-EY as substrate after 180 mins by luciferase coupled chemiluminescence assay
Ephrin type-B receptor 4 = target: T1, Ephrin type-B receptor 4 (Homo sapiens, UniProt P54760); assay: Inhibition of recombinant human N-terminal His6-tagged EphB4 kinase domain (E605 to E890 residues) expressed in baculovirus using poly-AEKY as substrate after 150 mins in presence of gamma33P-ATP by liquid scintillation spectrometry
T1 sequence (P54760 whole entry): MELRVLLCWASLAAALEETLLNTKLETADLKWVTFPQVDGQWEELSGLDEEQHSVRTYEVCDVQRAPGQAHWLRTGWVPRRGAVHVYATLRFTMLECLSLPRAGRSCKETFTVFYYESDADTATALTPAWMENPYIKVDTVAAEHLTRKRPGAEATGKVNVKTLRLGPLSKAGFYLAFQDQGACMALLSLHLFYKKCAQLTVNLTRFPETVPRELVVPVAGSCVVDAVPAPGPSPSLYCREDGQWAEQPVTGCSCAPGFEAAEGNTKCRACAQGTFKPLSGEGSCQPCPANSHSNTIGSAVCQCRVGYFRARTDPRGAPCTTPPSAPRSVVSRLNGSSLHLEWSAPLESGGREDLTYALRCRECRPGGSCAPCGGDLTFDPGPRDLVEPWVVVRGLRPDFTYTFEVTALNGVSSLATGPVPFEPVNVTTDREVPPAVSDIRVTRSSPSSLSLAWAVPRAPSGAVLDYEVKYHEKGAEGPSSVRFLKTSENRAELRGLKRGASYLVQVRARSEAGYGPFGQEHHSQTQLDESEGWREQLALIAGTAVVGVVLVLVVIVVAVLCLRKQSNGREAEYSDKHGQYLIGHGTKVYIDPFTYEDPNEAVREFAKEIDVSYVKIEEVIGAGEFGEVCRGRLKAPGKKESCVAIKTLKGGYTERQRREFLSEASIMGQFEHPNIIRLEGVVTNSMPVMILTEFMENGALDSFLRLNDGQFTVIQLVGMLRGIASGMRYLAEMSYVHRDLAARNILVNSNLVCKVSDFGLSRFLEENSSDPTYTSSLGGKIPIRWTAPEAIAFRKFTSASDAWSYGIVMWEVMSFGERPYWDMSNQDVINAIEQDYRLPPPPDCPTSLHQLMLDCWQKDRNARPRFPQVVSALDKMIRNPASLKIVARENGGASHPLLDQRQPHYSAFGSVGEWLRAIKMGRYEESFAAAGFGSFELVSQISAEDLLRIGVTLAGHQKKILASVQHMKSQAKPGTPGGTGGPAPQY

[1] = target: Receptor tyrosine-protein kinase erbB-2 (Homo sapiens, UniProt P04626); assay: Inhibition of recombinant human N-terminal GST His6-tagged thrombin cleavage site-fused ErbB2 kinase domain (Q679 to V1255 residues) expressed in baculovirus infected insect Sf9 cells using biotinylated poly-EY as substrate after 60 mins by alphascreen assay
Sequence of Receptor tyrosine-protein kinase erbB-2 (P04626 whole entry, the tested form may be a part): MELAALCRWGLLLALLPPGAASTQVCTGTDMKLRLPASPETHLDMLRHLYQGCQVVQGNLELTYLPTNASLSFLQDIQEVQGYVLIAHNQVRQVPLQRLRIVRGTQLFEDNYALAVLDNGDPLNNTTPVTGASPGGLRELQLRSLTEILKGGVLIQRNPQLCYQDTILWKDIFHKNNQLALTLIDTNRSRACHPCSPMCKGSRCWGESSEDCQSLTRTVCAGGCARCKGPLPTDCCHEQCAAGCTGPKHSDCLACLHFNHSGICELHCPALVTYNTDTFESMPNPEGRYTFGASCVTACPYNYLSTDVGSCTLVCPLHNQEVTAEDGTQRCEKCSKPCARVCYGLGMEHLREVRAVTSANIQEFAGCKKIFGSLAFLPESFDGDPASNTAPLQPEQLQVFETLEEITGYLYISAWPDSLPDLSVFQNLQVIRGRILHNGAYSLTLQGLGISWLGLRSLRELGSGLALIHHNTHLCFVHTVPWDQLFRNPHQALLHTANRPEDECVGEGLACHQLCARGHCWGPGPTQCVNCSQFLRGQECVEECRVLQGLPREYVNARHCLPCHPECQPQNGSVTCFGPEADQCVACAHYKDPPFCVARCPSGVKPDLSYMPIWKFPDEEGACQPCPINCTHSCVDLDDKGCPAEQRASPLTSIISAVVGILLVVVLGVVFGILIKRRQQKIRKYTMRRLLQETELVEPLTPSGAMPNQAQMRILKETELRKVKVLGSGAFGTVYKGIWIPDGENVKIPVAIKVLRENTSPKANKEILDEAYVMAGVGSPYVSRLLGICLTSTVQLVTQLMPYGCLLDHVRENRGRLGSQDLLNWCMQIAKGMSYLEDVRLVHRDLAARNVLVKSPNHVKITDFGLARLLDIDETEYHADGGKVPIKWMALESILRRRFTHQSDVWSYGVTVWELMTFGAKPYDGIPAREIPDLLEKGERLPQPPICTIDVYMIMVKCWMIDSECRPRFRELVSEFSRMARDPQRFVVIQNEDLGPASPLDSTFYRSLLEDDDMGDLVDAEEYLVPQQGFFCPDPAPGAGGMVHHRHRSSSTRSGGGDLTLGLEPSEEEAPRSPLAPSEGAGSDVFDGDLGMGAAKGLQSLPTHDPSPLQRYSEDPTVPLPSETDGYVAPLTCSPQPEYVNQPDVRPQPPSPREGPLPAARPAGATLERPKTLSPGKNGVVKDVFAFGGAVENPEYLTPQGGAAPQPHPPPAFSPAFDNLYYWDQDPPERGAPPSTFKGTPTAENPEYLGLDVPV

[2] = target: Vascular endothelial growth factor receptor 2 (Homo sapiens, UniProt P35968); assay: Inhibition of recombinant human N-terminal GST-fused KDR (D807 to V1356 residues) expressed in baculovirus infected […] insect Sf9 cells using poly-EY as substrate after 240 mins by luciferase coupled chemiluminescence assay
Sequence of Vascular endothelial growth factor receptor 2 (P35968 whole entry, the tested form may be a part): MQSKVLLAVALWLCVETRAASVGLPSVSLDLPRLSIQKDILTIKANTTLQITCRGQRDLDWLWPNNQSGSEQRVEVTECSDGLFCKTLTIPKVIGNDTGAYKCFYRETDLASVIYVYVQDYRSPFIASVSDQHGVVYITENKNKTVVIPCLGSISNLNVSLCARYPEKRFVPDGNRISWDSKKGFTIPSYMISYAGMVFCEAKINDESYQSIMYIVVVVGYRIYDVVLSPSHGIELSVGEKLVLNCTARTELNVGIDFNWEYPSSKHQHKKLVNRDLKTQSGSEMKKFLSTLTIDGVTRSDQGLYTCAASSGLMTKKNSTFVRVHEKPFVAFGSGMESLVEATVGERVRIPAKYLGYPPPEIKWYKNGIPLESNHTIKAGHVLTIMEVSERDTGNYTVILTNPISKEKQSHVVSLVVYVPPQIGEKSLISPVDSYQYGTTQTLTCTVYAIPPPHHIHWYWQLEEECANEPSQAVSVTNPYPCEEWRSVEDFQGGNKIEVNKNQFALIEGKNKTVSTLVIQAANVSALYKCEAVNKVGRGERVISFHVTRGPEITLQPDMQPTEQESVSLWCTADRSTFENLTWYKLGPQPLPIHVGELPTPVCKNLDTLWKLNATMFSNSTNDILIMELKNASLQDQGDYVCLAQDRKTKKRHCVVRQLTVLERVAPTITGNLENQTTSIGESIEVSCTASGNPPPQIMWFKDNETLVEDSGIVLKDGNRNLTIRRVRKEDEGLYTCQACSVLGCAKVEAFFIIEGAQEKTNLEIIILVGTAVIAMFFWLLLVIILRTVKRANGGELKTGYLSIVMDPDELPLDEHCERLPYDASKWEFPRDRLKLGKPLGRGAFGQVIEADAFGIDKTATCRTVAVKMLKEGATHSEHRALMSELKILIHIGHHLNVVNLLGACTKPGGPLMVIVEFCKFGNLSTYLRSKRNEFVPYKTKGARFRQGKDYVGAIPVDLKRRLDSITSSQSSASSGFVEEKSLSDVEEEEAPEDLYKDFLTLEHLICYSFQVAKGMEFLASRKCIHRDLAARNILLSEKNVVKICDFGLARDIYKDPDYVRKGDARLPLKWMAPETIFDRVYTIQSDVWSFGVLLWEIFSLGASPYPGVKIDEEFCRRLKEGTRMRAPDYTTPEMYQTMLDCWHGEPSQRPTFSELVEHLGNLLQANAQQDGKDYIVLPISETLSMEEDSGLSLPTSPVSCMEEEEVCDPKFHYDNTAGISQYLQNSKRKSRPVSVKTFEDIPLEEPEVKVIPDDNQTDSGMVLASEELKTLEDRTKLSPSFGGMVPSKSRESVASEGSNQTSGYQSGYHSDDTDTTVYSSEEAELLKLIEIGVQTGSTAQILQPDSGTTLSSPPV

[3] = target: Vascular endothelial growth factor receptor 1 (Homo sapiens, UniProt P17948); assay: Inhibition of recombinant human N-terminal GST-tagged factor 10a cleavage site-fused Flt1 (K784 to I1338 residues) expressed in baculovirus infected insect Sf9 cells using poly-EY as substrate after 120 mins in presence of gamma33P-ATP by liquid scintillation spectrometry
Sequence of Vascular endothelial growth factor receptor 1 (P17948 whole entry, the tested form may be a part): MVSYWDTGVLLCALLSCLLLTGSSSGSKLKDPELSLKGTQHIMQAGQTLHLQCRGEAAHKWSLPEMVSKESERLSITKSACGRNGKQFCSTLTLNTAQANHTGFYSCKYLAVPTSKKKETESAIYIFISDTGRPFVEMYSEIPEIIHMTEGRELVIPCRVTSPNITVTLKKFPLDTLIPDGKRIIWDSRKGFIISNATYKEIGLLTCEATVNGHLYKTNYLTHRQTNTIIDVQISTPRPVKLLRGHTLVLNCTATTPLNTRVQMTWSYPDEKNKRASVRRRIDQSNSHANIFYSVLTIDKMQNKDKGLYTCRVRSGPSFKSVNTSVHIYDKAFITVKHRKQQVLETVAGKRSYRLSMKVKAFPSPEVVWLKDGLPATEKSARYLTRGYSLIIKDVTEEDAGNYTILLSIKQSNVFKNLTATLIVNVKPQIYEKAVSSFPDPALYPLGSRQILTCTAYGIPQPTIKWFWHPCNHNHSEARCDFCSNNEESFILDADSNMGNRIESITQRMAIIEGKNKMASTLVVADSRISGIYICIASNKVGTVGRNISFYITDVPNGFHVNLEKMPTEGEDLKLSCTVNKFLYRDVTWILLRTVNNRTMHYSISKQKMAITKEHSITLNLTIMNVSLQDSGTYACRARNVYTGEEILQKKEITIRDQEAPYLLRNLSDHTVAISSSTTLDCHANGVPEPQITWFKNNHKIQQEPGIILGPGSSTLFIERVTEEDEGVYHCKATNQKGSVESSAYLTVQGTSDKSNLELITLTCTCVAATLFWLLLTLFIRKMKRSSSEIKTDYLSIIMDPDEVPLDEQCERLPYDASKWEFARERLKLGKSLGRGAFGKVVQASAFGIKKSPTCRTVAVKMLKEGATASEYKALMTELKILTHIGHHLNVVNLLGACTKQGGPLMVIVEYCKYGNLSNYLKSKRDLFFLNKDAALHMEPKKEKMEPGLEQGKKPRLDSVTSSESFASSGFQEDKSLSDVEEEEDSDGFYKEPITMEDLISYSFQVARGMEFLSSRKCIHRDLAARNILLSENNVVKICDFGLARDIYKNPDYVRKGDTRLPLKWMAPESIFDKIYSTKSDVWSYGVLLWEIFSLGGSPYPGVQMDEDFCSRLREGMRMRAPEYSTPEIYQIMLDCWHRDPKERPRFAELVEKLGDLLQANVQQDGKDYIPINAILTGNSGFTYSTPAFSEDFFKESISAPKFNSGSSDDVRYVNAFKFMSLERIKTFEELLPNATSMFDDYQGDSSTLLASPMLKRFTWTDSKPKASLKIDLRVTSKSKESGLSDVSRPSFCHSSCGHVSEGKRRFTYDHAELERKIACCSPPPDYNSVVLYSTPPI

Sequence of Ephrin type-A receptor 2 (P29317 whole entry, the tested form may be a part): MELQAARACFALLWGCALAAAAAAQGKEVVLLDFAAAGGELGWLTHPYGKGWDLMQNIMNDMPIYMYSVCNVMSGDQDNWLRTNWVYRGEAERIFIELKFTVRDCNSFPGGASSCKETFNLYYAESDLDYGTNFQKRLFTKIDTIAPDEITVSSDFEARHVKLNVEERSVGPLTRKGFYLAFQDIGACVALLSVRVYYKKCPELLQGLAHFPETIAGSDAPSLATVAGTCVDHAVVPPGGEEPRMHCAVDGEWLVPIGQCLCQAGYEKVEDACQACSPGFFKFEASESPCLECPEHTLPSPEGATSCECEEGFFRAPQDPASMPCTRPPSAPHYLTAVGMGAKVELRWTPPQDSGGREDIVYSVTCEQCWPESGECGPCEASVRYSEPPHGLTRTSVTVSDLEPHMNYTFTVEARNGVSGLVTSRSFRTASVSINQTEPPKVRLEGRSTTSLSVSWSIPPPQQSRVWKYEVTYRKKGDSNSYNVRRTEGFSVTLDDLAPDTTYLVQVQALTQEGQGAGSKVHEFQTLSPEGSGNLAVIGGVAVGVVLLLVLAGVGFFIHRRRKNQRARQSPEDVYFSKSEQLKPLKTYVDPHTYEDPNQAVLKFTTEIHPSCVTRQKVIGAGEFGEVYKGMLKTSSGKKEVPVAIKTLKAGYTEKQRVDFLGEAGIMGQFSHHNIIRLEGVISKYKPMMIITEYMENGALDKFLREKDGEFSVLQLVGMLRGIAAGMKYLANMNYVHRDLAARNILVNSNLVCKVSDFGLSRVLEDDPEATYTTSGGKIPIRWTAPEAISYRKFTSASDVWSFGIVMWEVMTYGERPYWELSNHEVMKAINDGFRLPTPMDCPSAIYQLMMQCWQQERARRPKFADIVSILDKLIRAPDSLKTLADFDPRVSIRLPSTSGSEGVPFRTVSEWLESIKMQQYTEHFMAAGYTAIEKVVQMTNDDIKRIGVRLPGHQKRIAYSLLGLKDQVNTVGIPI

Row | IC50 (Ephrin type-A receptor 2) [nM] | IC50 (Ephrin type-B receptor 4) [nM] | IC50 [1] [nM] | IC50 [2] [nM] | IC50 [3] [nM] | SMILES
1 | 1000 to 20000 | 1000 to 20000 | 1000 to 20000 | 1000 to 20000 | – | COc1cc2c(Nc3ccc(N4CCN(C)CC4)c(Cl)c3Cl)ncnc2cc1O[C@H]1CO[C@H]2[C@@H]1OC[C@@H]2F
2 | 1000 to 20000 | 50 to 1000 | 50 to 1000 | 1000 to 20000 | – | COc1cc2c(Nc3ccc(Br)c(Cl)c3)ncnc2cc1O[C@H]1CO[C@H]2[C@@H]1OC[C@@H]2O
3 | < 50 | < 50 | < 50 | < 50 | < 50 | COc1cc2c(Nc3ccc(Cl)c(Cl)c3F)ncnc2cc1OC[C@@H]1CN2CCOC[C@H]2CO1
4 | 1000 to 20000 | 50 to 1000 | 50 to 1000 | 1000 to 20000 | – | COc1cc2c(Nc3ccc(Br)c(Cl)c3)ncnc2cc1O[C@H]1CO[C@H]2[C@@H]1OC[C@@H]2S(C)(=O)=O
5 | 50 to 1000 | < 50 | 1000 to 20000 | 50 to 1000 | 50 to 1000 | COc1cc2c(Nc3ccc(Br)c(Cl)c3Cl)ncnc2cc1OC[C@@H]1CN2CCOC[C@H]2CO1
6 | 50 to 1000 | < 50 | 50 to 1000 | 50 to 1000 | 50 to 1000 | COc1cc2c(Nc3cc(Cl)c(Cl)cc3F)ncnc2cc1OC[C@@H]1CN2CCOC[C@H]2CO1
7 | 1000 to 20000 | 50 to 1000 | 1000 to 20000 | 50 to 1000 | – | CCN(CC)[C@H]1CO[C@H]2[C@@H]1OC[C@@H]2Oc1cc2ncnc(Nc3ccc(Br)c(Cl)c3)c2cc1OC
8 | 50 to 1000 | 50 to 1000 | 50 to 1000 | < 50 | 50 to 1000 | COc1cc2c(Nc3ccc(Br)c(Cl)c3F)ncnc2cc1OC[C@H]1CN2CCOC[C@H]2CO1
9 | 50 to 1000 | – | – | 50 to 1000 | 50 to 1000 | COc1cc2c(Nc3ccc(Cl)c(Cl)c3)ncnc2cc1OCC1CN2CSC[C@H]2CO1 (some centres undefined)
10 | 1000 to 20000 | 50 to 1000 | 1000 to 20000 | 1000 to 20000 | – | COc1cc2c(Nc3ccc(Br)c(Cl)c3)ncnc2cc1O[C@H]1CO[C@H]2[C@@H]1OC[C@@H]2N1CCOCC1
11 | 1000 to 20000 | 50 to 1000 | 1000 to 20000 | 1000 to 20000 | – | COc1cc2c(Nc3ccc(Br)c(Cl)c3)ncnc2cc1O[C@H]1CO[C@H]2[C@@H]1OC[C@@H]2N1CCCC1
12 | 50 to 1000 | < 50 | 50 to 1000 | 50 to 1000 | 50 to 1000 | COc1cc2c(Nc3cc(Cl)c(Br)cc3F)ncnc2cc1OC[C@@H]1CN2CCOC[C@H]2CO1
13 | 1000 to 20000 | 1000 to 20000 | 1000 to 20000 | 1000 to 20000 | – | COc1cc2c(Nc3ccc(N4CCN(C)CC4)cc3)ncnc2cc1O[C@H]1CO[C@H]2[C@@H]1OC[C@@H]2F
14 | 1000 to 20000 | 50 to 1000 | 1000 to 20000 | 1000 to 20000 | – | COc1cc2c(Nc3ccc(Br)c(Cl)c3)ncnc2cc1O[C@H]1CO[C@H]2[C@@H]1OC[C@@H]2N1CCCCC1
15 | < 50 | < 50 | < 50 | < 50 | < 50 | COc1cc2c(Nc3ccc(Br)c(Cl)c3F)ncnc2cc1OC[C@@H]1CN2CCOC[C@H]2CO1
16 | 1000 to 20000 | 50 to 1000 | 1000 to 20000 | 1000 to 20000 | – | COc1cc2c(Nc3ccc(Br)c(Cl)c3)ncnc2cc1O[C@H]1CO[C@H]2[C@@H]1OC[C@@H]2OC(C)=O
17 | – | – | 1000 to 20000 | – | 1000 to 20000 | COc1cc2c(Nc3ccc(Br)c(Cl)c3Cl)ncnc2cc1OC[C@@H]1CO[C@H]2[C@@H]1OC[C@@H]2OC

Row | IC50 (Ephrin type-A receptor 2) [nM] | IC50 (Ephrin type-B receptor 4) [nM] | IC50 [1] [nM] | IC50 [2] [nM] | IC50 [3] [nM] | SMILES
18 | 1000 to 20000 | 50 to 1000 | 50 to 1000 | 50 to 1000 | – | COc1cc2c(Nc3ccc(Br)c(Cl)c3)ncnc2cc1O[C@@H]1CCOC1
19 | 50 to 1000 | < 50 | < 50 | < 50 | 50 to 1000 | COc1cc2c(Nc3ccc(Cl)c(Cl)c3)ncnc2cc1OCC1CN2CCOCC2CO1 (centres undefined)
20 | 1000 to 20000 | 50 to 1000 | 50 to 1000 | 1000 to 20000 | – | COc1cc2c(Nc3ccc(Br)c(Cl)c3)ncnc2cc1O[C@@H]1CO[C@H]2[C@@H]1OC[C@@H]2NS(C)(=O)=O
21 | < 50 | – | – | < 50 | 50 to 1000 | COc1cc2c(Nc3ccc(Cl)c(Cl)c3F)ncnc2cc1OC[C@@H]1CN2CCC[C@@H]2C(=O)N1
22 | 50 to 1000 | < 50 | 50 to 1000 | 50 to 1000 | 50 to 1000 | COc1cc2c(Nc3ccc(F)c(Cl)c3F)ncnc2cc1OC[C@@H]1CN2CCOC[C@H]2CO1
23 | 50 to 1000 | – | – | < 50 | 50 to 1000 | COc1cc2c(Nc3ccc(Cl)c(Cl)c3F)ncnc2cc1OC[C@@H]1CN2CCC[C@H]2C(=O)N1
24 | 50 to 1000 | 50 to 1000 | 50 to 1000 | 50 to 1000 | 50 to 1000 | COc1cc2c(Nc3ccc(F)c(Cl)c3F)ncnc2cc1OC[C@H]1CN2CCOC[C@H]2CO1
25 | 50 to 1000 | 50 to 1000 | 50 to 1000 | 50 to 1000 | 50 to 1000 | COc1cc2c(Nc3cc(Cl)c(Br)cc3F)ncnc2cc1OC[C@H]1CN2CCOC[C@H]2CO1
26 | 1000 to 20000 | 50 to 1000 | 1000 to 20000 | 1000 to 20000 | – | COc1cc2c(Nc3ccc(Br)c(Cl)c3)ncnc2cc1O[C@H]1CO[C@H]2[C@@H]1OC[C@@H]2NC(C)=O
27 | < 50 | < 50 | 50 to 1000 | < 50 | 50 to 1000 | COc1cc2c(Nc3cc(Cl)c(Br)cc3F)ncnc2cc1OC[C@@H]1CN2CCC[C@H]2CO1
28 | 1000 to 20000 | 50 to 1000 | 1000 to 20000 | 50 to 1000 | – | COc1cc2c(Nc3ccc(Br)c(Cl)c3)ncnc2cc1OC1CCN(C)C1 (centres undefined)
29 | 50 to 1000 | < 50 | 50 to 1000 | < 50 | 50 to 1000 | COc1cc2c(Nc3ccc(Cl)c(Cl)c3F)ncnc2cc1OC[C@H]1CN2CCOC[C@H]2CO1
30 | 1000 to 20000 | 50 to 1000 | 1000 to 20000 | 1000 to 20000 | – | COc1cc2c(Nc3ccc(Br)c(Cl)c3)ncnc2cc1O[C@H]1CO[C@H]2[C@@H]1OC[C@@H]2N1CCN(C)CC1
31 | 1000 to 20000 | 50 to 1000 | 1000 to 20000 | 1000 to 20000 | – | CN[C@H]1CO[C@H]2[C@@H]1OC[C@@H]2Oc1cc2ncnc(Nc3ccc(Br)c(Cl)c3)c2cc1OC
32 | 1000 to 20000 | 50 to 1000 | 1000 to 20000 | 1000 to 20000 | – | COc1cc2c(Nc3ccc(Br)c(Cl)c3)ncnc2cc1O[C@H]1CO[C@H]2[C@@H]1OC[C@@H]2N
33 | 50 to 1000 | 50 to 1000 | 50 to 1000 | 50 to 1000 | 50 to 1000 | COc1cc2c(Nc3cc(Cl)c(Cl)cc3F)ncnc2cc1OC[C@H]1CN2CCOC[C@H]2CO1
34 | 1000 to 20000 | 1000 to 20000 | 1000 to 20000 | 1000 to 20000 | – | COc1cc2c(Nc3ccc(Cl)c(Cl)c3N3CCN(C)CC3)ncnc2cc1O[C@H]1CO[C@H]2[C@@H]1OC[C@@H]2F

Row | SMILES | IC50 (Ephrin type-A receptor 2) [nM] | IC50 (Ephrin type-B receptor 4) [nM] | IC50 [1] [nM] | IC50 [2] [nM] | IC50 [3] [nM]
35 | COc1cc2c(Nc3ccc(Cl)c(Cl)c3)ncnc2cc1OC[C@H]1CN2CCC[C@@H]2CO1 | 50 to 1000 | < 50 | 50 to 1000 | < 50 | 50 to 1000
36 | COc1cc2c(Nc3ccc(Cl)c(Cl)c3)ncnc2cc1OC[C@@H]1CN2CCC[C@H]2CO1 | < 50 | < 50 | 50 to 1000 | < 50 | 50 to 1000
37 | COc1cc2c(Nc3ccc(Cl)c(Cl)c3)ncnc2cc1OC[C@@H]1CN2CCC[C@@H]2CO1 | < 50 | < 50 | < 50 | < 50 | 50 to 1000
